Experimental data taken from PMC8261047, “In vivo Inhibition of the 3-Dehydroquinate Synthase by 7-Deoxysedoheptulose Depends on Promiscuous Uptake by Sugar Transporters in Cyanobacteria” (Frontiers in Microbiology, 2021).
Each block holds one molecule with its values, some of them ahead of it.

Assays:
[1] = target: T1, 3-dehydroquinate synthase (AvDHQS, Ava_4386) (Trichormus variabilis, UniProt Q3M4V2); test: Malachite green phosphate release assay with purified AvDHQS; Michaelis-Menten kinetics at […] 7dSh; format: biochemical
T1 construct: gene aroB; Ava_4386 in pET22b, C-terminal His-Tag, ∼39 kDa
T1 sequence (Q3M4V2 1-363): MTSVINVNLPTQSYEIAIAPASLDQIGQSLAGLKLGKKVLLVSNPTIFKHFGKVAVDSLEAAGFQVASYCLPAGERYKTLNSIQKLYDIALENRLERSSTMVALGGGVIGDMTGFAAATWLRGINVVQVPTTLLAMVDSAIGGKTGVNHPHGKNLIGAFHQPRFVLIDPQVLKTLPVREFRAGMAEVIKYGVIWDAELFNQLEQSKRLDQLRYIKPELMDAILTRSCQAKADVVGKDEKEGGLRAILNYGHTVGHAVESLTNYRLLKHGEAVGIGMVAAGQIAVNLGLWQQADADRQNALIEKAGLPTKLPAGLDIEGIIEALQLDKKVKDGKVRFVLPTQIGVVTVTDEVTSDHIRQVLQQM

[2] = substrate: O=C(O)C(=O)C[C@@H](O)[C@H](O)[C@H](O)COP(=O)(O)O; test: Malachite green phosphate release assay with purified AvDHQS; kM of the substrate; format: biochemical, Trichormus variabilis; conditions: NAD^+

- Ki [1]: 17.6 µM
Molecule: C[C@@H](O)[C@@H](O)[C@@H](O)[C@H](O)C(=O)CO [7dSh, 7-deoxy-D-altro-2-heptulose]

B1: 3-dehydroquinate synthase (AvDHQS, Ava_4386) (Trichormus variabilis ATCC 29413) (protein)
chain: T1 sequence (Q3M4V2 1-363)
notes: Ava_4386 in pET22b, C-terminal His-Tag, ∼39 kDa
- Km [2]: 1.8 ± 0.3 µM
